Results on six compounds are retold here after PubChem BioAssay AID1259407 (Chemical Carcinogenesis Research Information System (CCRIS), 2018).

The test system of the data set is CCRIS mutagenicity, Ames/micronucleus/aberration tests. In words: CCRIS mutagenicity studies.
Where [1] appears, read: Test System: AMES SALMONELLA TYPHIMURIUM, Strain/Indicator: TA98, Metabolic Activation: NONE, Method: STANDARD PLATE.
[2] abbreviates: Test System: AMES SALMONELLA TYPHIMURIUM, Strain/Indicator: TA100, Metabolic Activation: NONE, Method: STANDARD PLATE.
Setting [3] is: Test System: AMES SALMONELLA TYPHIMURIUM, Strain/Indicator: TA98, Metabolic Activation: NONE, Method: PREINCUBATION
Where [4] appears, read: Test System: AMES SALMONELLA TYPHIMURIUM, Strain/Indicator: TA100, Metabolic Activation: NONE, Method: PREINCUBATION
[5] abbreviates: Test System: AMES SALMONELLA TYPHIMURIUM, Strain/Indicator: TA1535, Metabolic Activation: NONE, Method: PREINCUBATION

Activity calls are given as the source filed them. The rule behind the calls is not given here.

On to `NC(Cc1ccc(O)cc1)C(=O)O` (stereo not drawn), for which the mutagenic call was “inactive; negative” under setting [1]; “inactive; negative” (Test System: AMES SALMONELLA TYPHIMURIUM, Strain/Indicator: TA98, Metabolic Activation: RAT, LIVER, S-9, AROCLOR 1254, Method: STANDARD PLATE); “inactive; negative” under setting [2]; “inactive; negative” (Test System: AMES SALMONELLA TYPHIMURIUM, Strain/Indicator: TA100, Metabolic Activation: RAT, LIVER, S-9, AROCLOR 1254, Method: STANDARD PLATE).

In the case of `N#CCc1ccc(Cl)cc1`, the mutagenic call was “inactive; negative” under setting [3]; “inactive; negative” (Test System: AMES SALMONELLA TYPHIMURIUM, Strain/Indicator: TA98, Metabolic Activation: RAT, LIVER, S-9, PHENOBARBITAL AND BETA-NAPHTHOFLAVONE, Method: PREINCUBATION); “inactive; negative” under setting [4]; “inactive; negative” (Test System: AMES SALMONELLA TYPHIMURIUM, Strain/Indicator: TA100, Metabolic Activation: RAT, LIVER, S-9, PHENOBARBITAL AND BETA-NAPHTHOFLAVONE, Method: PREINCUBATION); “inactive; negative” (Test System: AMES SALMONELLA TYPHIMURIUM, Strain/Indicator: TA102, Metabolic Activation: NONE, Method: PREINCUBATION); “inactive; negative” (Test System: AMES SALMONELLA TYPHIMURIUM, Strain/Indicator: TA102, Metabolic Activation: RAT, LIVER, S-9, SODIUM PHENOBARBITAL AND 5,6-BENZOFLAVONE, Method: PREINCUBATION). Moreover, the mutagenic call was “inactive; negative” (Test System: AMES SALMONELLA TYPHIMURIUM, Strain/Indicator: TA104, Metabolic Activation: NONE, Method: PREINCUBATION); “inactive; negative” (Test System: AMES SALMONELLA TYPHIMURIUM, Strain/Indicator: TA104, Metabolic Activation: RAT, LIVER, S-9, SODIUM PHENOBARBITAL AND 5,6-BENZOFLAVONE, Method: PREINCUBATION); “inactive; negative” under setting [5]; “inactive; negative” (Test System: AMES SALMONELLA TYPHIMURIUM, Strain/Indicator: TA1535, Metabolic Activation: RAT, LIVER, S-9, PHENOBARBITAL AND BETA-NAPHTHOFLAVONE, Method: PREINCUBATION); “inactive; negative” (Test System: AMES SALMONELLA TYPHIMURIUM, Strain/Indicator: TA1537, Metabolic Activation: NONE, Method: PREINCUBATION); “inactive; negative” (Test System: AMES SALMONELLA TYPHIMURIUM, Strain/Indicator: TA1537, Metabolic Activation: RAT, LIVER, S-9, PHENOBARBITAL AND BETA-NAPHTHOFLAVONE, Method: PREINCUBATION). Besides, the mutagenic call is “inactive; negative” (Test System: E. COLI, Strain/Indicator: WP2UVRA/PKM101, Metabolic Activation: NONE, Method: PREINCUBATION); “inactive; negative” (Test System: E. COLI, Strain/Indicator: WP2UVRA/PKM101, Metabolic Activation: RAT, LIVER, S-9, PHENOBARBITAL AND BETA-NAPHTHOFLAVONE, Method: PREINCUBATION); “inactive; negative” (Test System: E. COLI, Strain/Indicator: WP2UVRA, Metabolic Activation: NONE, Method: PREINCUBATION); “inactive; negative” (Test System: E. COLI, Strain/Indicator: WP2UVRA, Metabolic Activation: RAT, LIVER, S-9, PHENOBARBITAL AND BETA-NAPHTHOFLAVONE, Method: PREINCUBATION).

As for `CCN(CCC#N)c1cc(NC(C)=O)c(-n2nc3c(Br)cc(N)c(Cl)c3n2)cc1OC`, the mutagenic call is “active; positive” (Test System: AMES SALMONELLA TYPHIMURIUM, Strain/Indicator: TA98, Metabolic Activation: RAT LIVER S-9, AROCLOR 1254, Method: STANDARD PLATE); “active; positive” (Test System: AMES SALMONELLA TYPHIMURIUM, Strain/Indicator: TA100, Metabolic Activation: RAT LIVER S-9, AROCLOR 1254, Method: STANDARD PLATE); “active; positive” (Test System: AMES SALMONELLA TYPHIMURIUM, Strain/Indicator: TA104, Metabolic Activation: RAT LIVER S-9, AROCLOR 1254, Method: STANDARD PLATE); “active; positive” (Test System: AMES SALMONELLA TYPHIMURIUM, Strain/Indicator: YG1024, Metabolic Activation: RAT LIVER S-9, PHENOBARBITAL, 5,6-BENZOFLAVONE (10%), Method: PREINCUBATION).

With `NC(=O)N(Cc1ccccc1)N=O`, the mutagenic call is “active; positive” (Test System: AMES SALMONELLA TYPHIMURIUM, Strain/Indicator: TA100, Metabolic Activation: NONE, Method: LIQUID INCUBATION) and “inactive; negative” (Test System: AMES SALMONELLA TYPHIMURIUM, Strain/Indicator: TA1535, Metabolic Activation: NONE, Method: LIQUID INCUBATION).

Consider `CC(=O)OO`, for which the mutagenic call reads like this: (Test System: AMES SALMONELLA TYPHIMURIUM, Strain/Indicator: TA97, Metabolic Activation: HAMSTER, LIVER, S-9, AROCLOR 1254 (10 OR 30%), Method: PREINCUBATION) “inactive; negative”; (Test System: AMES SALMONELLA TYPHIMURIUM, Strain/Indicator: TA97, Metabolic Activation: NONE, Method: PREINCUBATION) “inactive; negative”; (Test System: AMES SALMONELLA TYPHIMURIUM, Strain/Indicator: TA97, Metabolic Activation: RAT, LIVER, S-9, AROCLOR 1254 (10 OR 30%), Method: PREINCUBATION) “inactive; negative”; (Test System: AMES SALMONELLA TYPHIMURIUM, Strain/Indicator: TA98, Metabolic Activation: HAMSTER, LIVER, S-9, AROCLOR 1254 (10 OR 30%), Method: PREINCUBATION) “inactive; negative”; under setting [3], “inactive; negative”; (Test System: AMES SALMONELLA TYPHIMURIUM, Strain/Indicator: TA98, Metabolic Activation: RAT, LIVER, S-9, AROCLOR 1254 (10 OR 30%), Method: PREINCUBATION) “inactive; negative”. In addition, the mutagenic call runs as follows: (Test System: AMES SALMONELLA TYPHIMURIUM, Strain/Indicator: TA100, Metabolic Activation: HAMSTER, LIVER, S-9, AROCLOR 1254 (10 OR 30%), Method: PREINCUBATION) “inactive; negative”; under setting [4], “inactive; negative”; (Test System: AMES SALMONELLA TYPHIMURIUM, Strain/Indicator: TA100, Metabolic Activation: RAT, LIVER, S-9, AROCLOR 1254 (10 OR 30%), Method: PREINCUBATION) “inactive; negative”; (Test System: AMES SALMONELLA TYPHIMURIUM, Strain/Indicator: TA1535, Metabolic Activation: HAMSTER, LIVER, S-9, AROCLOR 1254 (10 OR 30%), Method: PREINCUBATION) “inactive; negative”; under setting [5], “inactive; negative”; (Test System: AMES SALMONELLA TYPHIMURIUM, Strain/Indicator: TA1535, Metabolic Activation: RAT, LIVER, S-9, AROCLOR 1254 (10 OR 30%), Method: PREINCUBATION) “inactive; negative”.

On to `CC(C)OC(=O)C(C)(C)Oc1ccc(C(=O)c2ccc(Cl)cc2)cc1`, for which the mutagenic call is “inactive; negative” under setting [1]; “inactive; negative” (Test System: AMES SALMONELLA TYPHIMURIUM, Strain/Indicator: TA98, Metabolic Activation: RAT, LIVER, S-9, PHENOBARBITAL AND 5,6-BENZOFLAVONE, Method: STANDARD PLATE); “inactive; negative” under setting [2]; “inactive; negative” (Test System: AMES SALMONELLA TYPHIMURIUM, Strain/Indicator: TA100, Metabolic Activation: RAT, LIVER, S-9, PHENOBARBITAL AND 5,6-BENZOFLAVONE, Method: STANDARD PLATE); “inactive; negative” (Test System: AMES SALMONELLA TYPHIMURIUM, Strain/Indicator: TA1535, Metabolic Activation: NONE, Method: STANDARD PLATE); “inactive; negative” (Test System: AMES SALMONELLA TYPHIMURIUM, Strain/Indicator: TA1535, Metabolic Activation: RAT, LIVER, S-9, PHENOBARBITAL AND 5,6-BENZOFLAVONE, Method: STANDARD PLATE). The mutagenic call runs as follows: (Test System: AMES SALMONELLA TYPHIMURIUM, Strain/Indicator: TA1537, Metabolic Activation: NONE, Method: STANDARD PLATE) “inactive; negative”; (Test System: AMES SALMONELLA TYPHIMURIUM, Strain/Indicator: TA1537, Metabolic Activation: RAT, LIVER, S-9, PHENOBARBITAL AND 5,6-BENZOFLAVONE, Method: STANDARD PLATE) “inactive; negative”; (Test System: E. COLI, Strain/Indicator: WP2 UVRA, Metabolic Activation: NONE, Method: STANDARD PLATE) “inactive; negative”; (Test System: E. COLI, Strain/Indicator: WP2 UVRA, Metabolic Activation: RAT, LIVER, S-9, PHENOBARBITAL AND 5,6-BENZOFLAVONE, Method: STANDARD PLATE) “inactive; negative”.
